According to paper PMC3783656 (Bioorganic & medicinal chemistry letters, 2013):
Values after ≈ are worked out from the molar mass of the structure shown. Where two headings read alike, the source gives them in different places. One block for each compound: values may come before it.

How the values were obtained:
CK1δ [1] = target: T1, CK1δ (Homo sapiens, UniProt P48730); experiment: CK1δ inhibition, Reaction Biology Corp.; assay type: biochemical; details: for IC50: read-out: IC50 CK1δ
CK1 [2] = details: cited from earlier work
CK1δ [3] = target: T1, CK1δ; experiment: CK1δ inhibition, in-house kinase inhibition assay; assay type: biochemical; details: read-out: IC50 CK1δ
Solubility in PBS buffer = assay type: physicochemical
cytochrome P450 1A2 = cytochrome P450 1A2 (Homo sapiens, UniProt P05177); experiment: Cyp assay, 1A2; assay type: in vitro ADME; details: at 10 μM
cytochrome P450 1A2, sequence (P05177 whole entry, species assumed): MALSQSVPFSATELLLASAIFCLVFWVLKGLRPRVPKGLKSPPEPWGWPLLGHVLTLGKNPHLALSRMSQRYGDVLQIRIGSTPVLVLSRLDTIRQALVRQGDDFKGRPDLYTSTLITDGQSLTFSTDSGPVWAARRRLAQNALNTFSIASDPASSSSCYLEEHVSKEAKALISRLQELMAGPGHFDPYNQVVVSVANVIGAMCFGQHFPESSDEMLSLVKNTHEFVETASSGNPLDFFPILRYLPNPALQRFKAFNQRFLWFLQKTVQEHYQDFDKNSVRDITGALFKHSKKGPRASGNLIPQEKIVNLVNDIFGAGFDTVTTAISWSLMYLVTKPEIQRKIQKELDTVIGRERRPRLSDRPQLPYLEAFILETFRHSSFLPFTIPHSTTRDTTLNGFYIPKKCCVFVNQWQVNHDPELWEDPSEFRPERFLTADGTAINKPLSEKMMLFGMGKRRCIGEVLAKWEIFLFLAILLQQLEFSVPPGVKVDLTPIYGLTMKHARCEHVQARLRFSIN

[4] = system: human melanoma A375 cell line; experiment: MTT assay against A375 melanoma cells; assay type: cell-based
[5] = Microsome stability, mouse liver microsomes
[6] = Microsome stability, human liver microsomes
[7] = Microsome stability, rat liver microsomes
[8] = Solubility in DMEM/10% FBS; assay type: physicochemical
Mouse PK studies = assay type: in vivo; details: IV dosing, 1 mg/kg, 10/10/80 DMSO/Tween/water
CK1ε = CK1ε (Homo sapiens, UniProt P49674); experiment: CK1ε inhibition, Reaction Biology Corporation; assay type: biochemical
CK1ε, sequence (P49674 whole entry): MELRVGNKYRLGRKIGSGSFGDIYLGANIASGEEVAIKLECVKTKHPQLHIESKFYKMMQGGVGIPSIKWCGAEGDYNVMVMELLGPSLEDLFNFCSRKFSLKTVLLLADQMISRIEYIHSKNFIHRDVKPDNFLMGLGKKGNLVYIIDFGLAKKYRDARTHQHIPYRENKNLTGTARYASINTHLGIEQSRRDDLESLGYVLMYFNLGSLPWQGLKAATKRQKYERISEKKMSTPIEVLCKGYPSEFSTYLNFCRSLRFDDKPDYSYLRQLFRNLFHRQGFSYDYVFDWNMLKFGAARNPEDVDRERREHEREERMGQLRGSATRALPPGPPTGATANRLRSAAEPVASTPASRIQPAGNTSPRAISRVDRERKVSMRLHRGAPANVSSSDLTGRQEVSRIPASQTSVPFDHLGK

CK1 [9] = details: cited from earlier work; remark: listed apart in the source
442 kinases = experiment: DiscoverRX KINOMEscan analysis of 442 kinases; assay type: binding; details: 10 μM, KINOMEscan of 442 kinases
[10] = data obtained by Reaction Biology Corp.
[11] = read-out: MTT assay A375 EC50, human A375 melanoma cell line

T1 sequence (P48730 whole entry): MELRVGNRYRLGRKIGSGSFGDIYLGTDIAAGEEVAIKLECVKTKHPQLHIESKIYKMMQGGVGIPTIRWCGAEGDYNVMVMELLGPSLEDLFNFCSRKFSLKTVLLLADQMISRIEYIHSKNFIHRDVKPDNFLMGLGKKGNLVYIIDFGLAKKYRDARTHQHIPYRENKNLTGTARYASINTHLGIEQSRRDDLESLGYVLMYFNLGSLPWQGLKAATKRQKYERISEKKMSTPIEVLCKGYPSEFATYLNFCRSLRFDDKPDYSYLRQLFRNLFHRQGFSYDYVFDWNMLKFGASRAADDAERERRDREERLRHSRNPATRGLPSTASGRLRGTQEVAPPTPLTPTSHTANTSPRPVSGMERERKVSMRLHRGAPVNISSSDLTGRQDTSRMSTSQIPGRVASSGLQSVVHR

SMILES: c1ccc2[nH]c(CNc3nc(N4CCOCC4)nc4c3ncn4C3CCCC3)nc2c1 [SR-2149]
IC50 (CK1δ [1]; [10]): 57 nM

SMILES: NCCNS(=O)(=O)c1ccc(Cl)c2ccncc12 [CKI-7]
IC50 (CK1 [2]; read-out: CK1 inhibition): 6000 nM

SMILES: NC1CCN(c2nc(NCc3nc4cc(Cl)ccc4[nH]3)c3ncn(-c4ccsc4)c3n2)CC1 [SR-2875]
IC50 (CK1δ [3]): 119 nM

SMILES: c1ccc2[nH]c(CNc3nc(N4CCOCC4)nc4c3ncn4-c3ccsc3)nc2c1 [SR-653234]
Inhibition of 1A2 (cytochrome P450 1A2): e 86% Inhibition of 1A2 at 10 μM.
EC50 [4, 11]: 111 nM
Microsome stability T1/2 (mouse) ([5]; mouse liver microsomes, third value of h/r/m): 1 min
Microsome stability T1/2 (human) ([6]; human liver microsomes, first value of h/r/m): 11 min
Microsome stability T1/2 (rat) ([7]; rat liver microsomes, second value of h/r/m): 6 min
IC50 (CK1δ [1]; [10]): 160 nM
Solubility [8]: 28 µM (≈ 12.1 µg/mL)
AUC (Mouse PK studies): 1.75 µM·h
Cl (Mouse PK studies): 2.2 mL/min/kg
Cmax (Mouse PK studies): 3.2 µM
T1/2 (Mouse PK studies): 43.8 min
IC50 (CK1ε; read-out: CK1ε Inh IC50, data obtained by Reaction Biology Corporation): 540 nM

SMILES: CC[C@H](CO)Nc1nc(Nc2cccc(-c3ccccn3)c2)c2ncn(C(C)C)c2n1 [(R)-DRF053]
IC50 (CK1 [2]; read-out: CK1 inhibition, dual CK1/CDK inhibitor): 14 nM

SMILES: NC(=O)c1ccc(-c2nc(-c3ccc4c(c3)OCCO4)c(-c3ccccn3)[nH]2)cc1 [Compound D4476]
EC50 [4, 11]: 10000 nM
Activity in cell-based assays (CK1 [9]; cell-based assays): 20 to 50 µM

SMILES: O=[N+]([O-])c1cccc2[nH]c(CNc3nc(N4CCOCC4)nc4c3ncn4-c3cc(F)cc(F)c3)nc12 [SR-2368]
IC50 (CK1δ [3]): 75 nM

SMILES: Clc1ccc2[nH]c(CNc3nc(N4CCOCC4)nc4c3ncn4-c3ccoc3)nc2c1 [SR-2850]
IC50 (CK1δ [1]; [10]): 23 nM

SMILES: COc1cc(OC)c(C=C2C(O)=Nc3ccccc32)c(OC)c1 [IC261]
IC50 (CK1 [9]; read-out: IC50 for CK1 inhibition in cells, in cells): 25000 nM
IC50 (CK1 [2]; read-out: IC50 for CK1 inhibition in vitro, in vitro): 1000 nM

SMILES: c1ccc2[nH]c(CNc3nc(N4CCNCC4)nc4c3ncn4-c3ccsc3)nc2c1 [SR-1292]
IC50 (CK1δ [1]; [10]): 3 nM
Solubility (Solubility in PBS buffer): 75 µM (≈ 32.4 µg/mL)

SMILES: CC(C)(C)c1cc(NC(=O)Nc2ccc(-c3cn4c(n3)sc3cc(OCCN5CCOCC5)ccc34)cc2)no1 [AC220, reference compound]
EC50 ([4]; Homo sapiens, A-375, read-out: MTT assay A375 EC50): 1570 nM
Activity against CK1δ (CK1δ [1]): inactive
Activity against CK1ε (CK1ε): inactive

SMILES: FC(F)(F)c1ccc2[nH]c(CNc3nc(N4CCOCC4)nc4c3ncn4-c3ccsc3)nc2c1 [SR-1273]
IC50 (CK1δ [1]; [10]): 13 nM

SMILES: CS(=O)(=O)c1cccc2[nH]c(CNc3nc(N4CCOCC4)nc4c3ncn4-c3ccsc3)nc12 [SR-2805]
IC50 (CK1δ [1]; [10]): 16 nM

SMILES: O=[N+]([O-])c1ccc2[nH]c(CNc3nc(N4CCOCC4)nc4c3ncn4-c3ccsc3)nc2c1 [SR-1278]
IC50 (CK1δ [1]; [10]): 21 nM

SMILES: O=[N+]([O-])c1cccc2[nH]c(CNc3nc(N4CCOCC4)nc4c3ncn4-c3ccoc3)nc12 [SR-2007]
IC50 (CK1δ [1]; [10]): 19 nM

SMILES: O=[N+]([O-])c1cccc2[nH]c(CNc3nc(N4CCOCC4)nc4c3ncn4-c3ccc(F)cc3)nc12 [SR-2362]
IC50 CK1δ (CK1δ [1]; [10]): essentially inactive
IC50 (CK1δ [1]; [10]): > 1000 nM

SMILES: CCN(CC)CCNC(=O)c1c(C)[nH]c(/C=C2\C(=O)Nc3ccc(F)cc32)c1C [Sunitinib, sunitinib, reference compound]
half-life ([5]; mouse, liver microsomes): 21 min
half-life ([6]; human, liver microsomes): 54 min
half-life ([7]; rat, liver microsomes): 21 min

Continued, in another order:

IC50 (CK1δ [1]; [10]): 50 nM
SMILES: Fc1ccc2[nH]c(CNc3nc(N4CCOCC4)nc4c3ncn4-c3ccsc3)nc2c1 [SR-1275]

IC50 (CK1δ [1]; [10]): 17 nM
SMILES: COc1ccc2[nH]c(CNc3nc(N4CCOCC4)nc4c3ncn4-c3ccsc3)nc2c1 [SR-1279]

IC50 (CK1δ [3]): 51 nM
Solubility (Solubility in PBS buffer): 54 µM (≈ 25.2 µg/mL)
SMILES: Clc1ccc2[nH]c(CNc3nc(N4CCNCC4)nc4c3ncn4-c3ccsc3)nc2c1 [SR-2876]

IC50 (CK1δ [1]; [10]): 128 nM
SMILES: FC(F)(F)c1cccc2[nH]c(CNc3nc(N4CCOCC4)nc4c3ncn4-c3ccsc3)nc12 [SR-1272]

IC50 (CK1δ [1]; [10]): 11 nM
SMILES: N#Cc1ccc2[nH]c(CNc3nc(N4CCOCC4)nc4c3ncn4-c3ccsc3)nc2c1 [SR-1276]

EC50 [4, 11]: 2300 nM
SMILES: O=C(Nc1nc2ccc(C(F)(F)F)cc2[nH]1)c1csc(NC(=O)c2ccccc2OC(F)(F)F)n1 [Bischof-5, reference compound]

IC50 (CK1δ [3]): 199 nM
SMILES: CC1CN(c2nc(NCc3nc4ccccc4[nH]3)c3ncn(-c4ccsc4)c3n2)CCN1 (stereo not drawn) [SR-2915]

IC50 (CK1δ [1]; [10]): 11 nM
SMILES: CN1CCN(c2nc(NCc3nc4ccccc4[nH]3)c3ncn(-c4ccsc4)c3n2)CC1 [SR-1294]

IC50 (CK1δ [1]; [10]): 105 nM
SMILES: Clc1ccc2[nH]c(CNc3nc(N4CCOCC4)nc4c3ncn4-c3ccsc3)nc2c1 [SR-1274]

IC50 (CK1δ [1]; [10]): 10 nM
SMILES: CS(=O)(=O)c1ccc2[nH]c(CNc3nc(N4CCOCC4)nc4c3ncn4-c3ccsc3)nc2c1 [SR-2797]

IC50 (CK1δ [3]): 57 nM
SMILES: O=[N+]([O-])c1cccc2[nH]c(CNc3nc(N4CCOCC4)nc4c3ncn4-c3cccc(F)c3)nc12 [SR-2364]

EC50 [4, 11]: > 10000 nM
SMILES: Nc1nccc(-c2c(-c3ccc(F)cc3)ncn2C2CCCCC2)n1 [PF-670462, reference compound]
Number of kinases inhibited ≥90% (442 kinases): 44
